These compounds were tested against Human CARM1 (PRMT4) (Homo sapiens (Human), UniProt Q86X55) (assay: CARM1 enzyme assay on peptide substrate (3H-SAM Flashplate)). Conditions: Biochemical potencies, classification codes; read-out: Biochem IC50.
Excerpt: S-adenosylmethionine (SAM), S-adenosylhomocysteine (SAH), bicine, Tween20, dimethylsulfoxide (DMSO), bovine skin gelatin (BSG), sodium butyrate and Tris(2-carboxyethyl)phosphine hydrochloride solution (TCEP) were purchased from Sigma-Aldrich at the highest level of purity possible. ^3H-SAM was purchase from American Radiolabeled Chemicals with a specific activity of 80 Ci/mmol. 384-well streptavidin Flashplates were purchased from PerkinElmer.
Peptide representative of human histone H3 residues 16-30 was synthesized with an N-terminal linker-affinity tag motif and a C-terminal amide cap by 21st Century Biochemicals. […] The sequence was Biot-Ahx-[…]-amide and contained a monomethylated arginine at position 26 (SEQ ID NO.:1).
The gene sequence encoding isoform1 containing a deletion of amino acids 539-561 was amplified subsequently and subcloned into pFastBacMam (Viva Biotech).
Recombinant baculovirus were generated according to Bac-to-Bac kit instructions (Life Technologies). Protein over-expression was accomplished by infecting exponentially growing HEK 293F cell culture at 1.3×10^6cell/ml with virus (MOI=10) in the presence of 8 mM sodium butyrate. Infections were carried out at 37° C. for 48 hours, harvested by centrifugation, and stored at −80° C. for purification.
Expressed full-length human Flag- and His-tagged CARM1 protein was purified from cell paste by anti-flag M2 affinity chromatography with resin equilibrated with buffer containing 20 mM Tris, 150 mM NaCl, 5% glycerol, pH 7.8. Column was washed with 500 mM NaCl in buffer A and Flag-CARM1-His was eluted with 200 ug/ml FLAG peptide in buffer A. Pooled fractions were dialyzed in 20 mM Tris, 150 mM NaCl, 5% glycerol and 1 mM DTT, pH 7.8.
The assays were all performed in a buffer consisting of 20 mM Bicine (pH=7.6), 1 mM TCEP, 0.005% BSG, and 0.002% Tween 20, prepared on the day of use. Compounds in 100% DMSO (1 ul) were spotted into a polypropylene 384-well V-bottom plates (Greiner) using a Platemate Plus outfitted with a 384-channel head (Thermo Scientific). DMSO (1 ul) was added to Columns 11, 12, 23, 24, rows A-H for the maximum signal control and 1 ul of SAH, a known product and inhibitor of CARM1, was added to columns 11, 12, 23, 24, rows I-P for the minimum signal control. A cocktail (40 ul) containing the CARM1 enzyme was added by Multidrop Combi (Thermo-Fisher). The compounds were allowed to incubate with CARM1 for 30 min at room temperature, then a cocktail (10 ul) containing ^3H-SAM and peptide was added to initiate the reaction (final volume=51 ul). The final concentrations of the components were as follows: CARM1 was 0.25 nM, ^3H-SAM was 30 nM, peptide was 250 nM, SAH in the minimum signal control wells was 1 mM, and the DMSO concentration was 2%. The assays were stopped by the addition of non-radiolabeled SAM (10 ul) to a final concentration of 300 uM, which dilutes the ^3H-SAM to a level where its incorporation into the peptide substrate is no longer detectable. 50 ul of the reaction in the 384-well polypropylene plate was then transferred to a 384-well Flashplate and the biotinylated peptides were allowed to bind to the streptavidin surface for at least 1 hour before being washed once with 0.1% Tween20 in a Biotek ELx405 plate washer. The plates were then read in a PerkinElmer TopCount plate reader to measure the quantity of ^3H-labeled peptide bound to the Flashplate surface, measured as disintegrations per minute (dpm) or alternatively, referred to as counts per minute (cpm).
where dpm=disintegrations per minute, cmpd=signal in assay well, and min and max are the respective minimum and maximum signal controls.
where top and bottom are the normally allowed to float, but may be fixed at 100 or 0 respectively in a 3-parameter fit. The Hill Coefficient normally allowed to float but may also be fixed at 1 in a 3-parameter fit. Y is the % inhibition and X is the compound concentration.

Sequence of Human CARM1 (PRMT4) (Q86X55 other isoform, or with tags, fused parts or gaps isoform Q86X55-1): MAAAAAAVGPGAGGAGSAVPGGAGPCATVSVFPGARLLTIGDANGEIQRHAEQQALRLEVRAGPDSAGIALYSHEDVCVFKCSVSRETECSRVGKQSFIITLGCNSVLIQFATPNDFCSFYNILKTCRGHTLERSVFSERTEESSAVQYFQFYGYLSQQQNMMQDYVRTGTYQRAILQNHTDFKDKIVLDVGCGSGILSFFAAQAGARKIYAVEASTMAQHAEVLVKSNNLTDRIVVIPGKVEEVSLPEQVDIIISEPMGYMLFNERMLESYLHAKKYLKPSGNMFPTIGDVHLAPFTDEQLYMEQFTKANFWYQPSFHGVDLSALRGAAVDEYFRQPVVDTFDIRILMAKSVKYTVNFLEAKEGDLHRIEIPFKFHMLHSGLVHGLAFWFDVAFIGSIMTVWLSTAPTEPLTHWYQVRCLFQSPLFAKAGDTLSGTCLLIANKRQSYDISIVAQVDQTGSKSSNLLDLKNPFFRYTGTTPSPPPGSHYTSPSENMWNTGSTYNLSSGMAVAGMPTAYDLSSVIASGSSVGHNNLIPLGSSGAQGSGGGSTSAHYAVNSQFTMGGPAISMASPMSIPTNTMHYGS

Compound | IC50
CNCC(O)COc1cccc(-c2nc(-c3ccncc3)cc(N(C)C3CCOCC3)n2)c1 (stereo not drawn) [Example 1-1] | < 100 nM
CNCC(O)COc1cccc(-c2nc(NC3CNC3)c(C)c(-c3c(C)noc3C)n2)c1 (stereo not drawn) [Example 1-3] | < 100 nM
CNCC(O)COc1cccc(-c2nc(N[C@@H]3CCOC3)c(C)c(N3CCOCC3)n2)c1 (stereo partly drawn) [Example 3-1] | < 100 nM
CNCC(O)COc1cccc(-c2nc(-c3c(C)noc3C)cc(-c3c(C)noc3C)n2)c1 (stereo not drawn) [Example 3-1a] | < 100 nM
CNCC(O)COc1cccc(-c2nccc(NC3CCOCC3)n2)c1 (stereo not drawn) [Example 4-1] | > 10000 nM
CNCC(O)COc1cc(Cl)cc(-c2nc(-c3c(C)noc3C)cc(-c3c(C)noc3C)n2)c1 (stereo not drawn) [Example 4-1a] | < 100 nM
CNCC(O)COc1cccc(-c2cc(N(C)C3CCOCC3)nc(C3CC3)n2)c1 (stereo not drawn) [Example 4-2] | < 100 nM
CNCC(O)COc1ccc(Cl)c(-c2nc(N[C@H]3CCN(C(=O)OC)C[C@H]3F)c(C)c(-c3c(C)noc3C)n2)c1 (stereo partly drawn) [Example 4-3] | < 100 nM
CNCC(O)COc1cccc(-c2nc(-c3c(C)noc3C)cc(N(C)CCC#N)n2)c1 (stereo not drawn) [Example 5-1a] | < 100 nM
C=C(C)c1nc(-c2cccc(OCC(O)CNC)c2)cc(N(C)C2CCOCC2)n1 (stereo not drawn) [Example 5-2] | < 100 nM
CNCC(O)COc1cccc(-c2nc(NC3(CO)CC3)c(C)c(-c3c(C)noc3C)n2)c1 (stereo not drawn) [Example 5-3] | < 100 nM
CNCC(O)COc1cccc(-c2cc(N(C)C3CCOCC3)nc(C(C)C)n2)c1 (stereo not drawn) [Example 6-2] | < 100 nM
CNCC(O)COc1cc(Cl)cc(-c2nc(NC3CCOCC3)cc(-c3c(C)noc3C)n2)c1 (stereo not drawn) [Example 7-1a] | < 100 nM
CNCC(O)COc1ccc(Cl)c(-c2nc(NC[C@@H]3CCCO3)c(C)c(-c3c(C)noc3C)n2)c1 (stereo partly drawn) [Example 7-3] | < 100 nM
CNCC(O)COc1cccc(-c2nc(-c3cncnc3)cc(-c3c(C)noc3C)n2)c1 (stereo not drawn) [Example 8-1a] | < 100 nM
CNCC(O)COc1cccc(-c2cc(N(C)C3CCOCC3)nc(N(C)C)n2)c1 (stereo not drawn) [Example 8-2] | < 100 nM
CNCC(O)COc1cccc(-c2nc(NC3(C(F)(F)F)CC3)c(C)c(-c3c(C)noc3C)n2)c1 (stereo not drawn) [Example 8-3] | < 100 nM
CNCC(O)COc1cccc(-c2nc(C3CC3)cc(N(C)C3CCOCC3)n2)c1 (stereo not drawn) [Example 10-1] | < 100 nM

Compound | IC50
CNCC(O)COc1cccc(-c2nc(N[C@H]3CCC[C@@H](O)C3)c(C)c(-c3c(C)noc3C)n2)c1 (stereo partly drawn) [Example 10-3] | < 100 nM
CNCC(O)COc1cccc(-c2nc(N[C@@H]3CCOC3)c(C)c(N3CC4CN(S(C)(=O)=O)CC4C3)n2)c1 (stereo partly drawn) [Example 11-3] | < 100 nM
CNCC(O)COc1cccc(-c2nc(-c3c(C)noc3C)c(C)c(N3CC(NC(=O)OC)C3)n2)c1 (stereo not drawn) [Example 12-3] | < 100 nM
CNCC(O)COc1cccc(-c2nc(N[C@H]3CCOC3)cc(-c3c(C)noc3C)n2)c1 (stereo partly drawn) [Example 13-1a] | < 100 nM
CNCC(O)COc1cccc(-c2nc(-c3c(C)noc3C)c(C)c(N3CC(NC(=O)N(C)C)C3)n2)c1 (stereo not drawn) [Example 13-3] | < 100 nM
CNCC(O)COc1cccc(-c2cc(N(C)C3CCOCC3)nc(-c3cccnc3)n2)c1 (stereo not drawn) [Example 14-2] | < 100 nM
CCC(=O)NC1CN(c2nc(-c3cccc(OCC(O)CNC)c3)nc(-c3c(C)noc3C)c2C)C1 (stereo not drawn) [Example 14-3] | < 100 nM
CNCC(O)COc1cccc(-c2nc(N(C)C)cc(N(C)C3CCOCC3)n2)c1 (stereo not drawn) [Example 15-1] | < 100 nM
Cc1noc(C)c1-c1cc(NC2CCOCC2)nc(-c2cccc(OC[C@@H](O)CN)c2)n1 [Example 15-1a] | < 100 nM
CNCC(O)COc1cccc(-c2cc(N(C)C3CCOCC3)nc(N3CCOCC3)n2)c1 (stereo not drawn) [Example 15-2] | < 100 nM
Cc1noc(C)c1-c1cc(NC2CCOCC2)nc(-c2cccc(OC[C@H](O)CN)c2)n1 [Example 16-1a] | < 100 nM
CNCC(O)COc1cccc(-c2cc(N(C)C3CCOCC3)nc(-c3cnc4[nH]ccc4c3)n2)c1 (stereo not drawn) [Example 16-2] | < 100 nM
CNC[C@H](O)COc1cccc(-c2nc(NC3CCOCC3)cc(-c3c(C)noc3C)n2)c1 [Example 17-1a] | < 100 nM
CNCC(O)COc1cccc(-c2nc(-c3cncnc3)cc(N(C)CCC#N)n2)c1 (stereo not drawn) [Example 18-1] | < 100 nM
CNCC(O)COc1cccc(-c2nc(Nc3nccn3C)c(C)c(-c3c(C)noc3C)n2)c1 (stereo not drawn) [Example 18-3] | < 100 nM
CNCC(O)COc1cccc(-c2nc(-c3c(C)noc3C)cc(N3CCN(C)CC3)n2)c1 (stereo not drawn) [Example 19-1a] | < 100 nM
CNCC(O)COc1cccc(-c2nc(N[C@H]3C[C@@](C)(OC)C3)c(C)c(-c3c(C)noc3C)n2)c1 (stereo partly drawn) [Example 19-3] | < 100 nM

Now from value to compound:

IC50 | Compound
< 100 nM | CNCC(O)COc1cccc(-c2nc(-c3c(C)noc3C)cc(N(C)C3CCOCC3)n2)c1 (stereo not drawn) [Example 1-1a]
< 100 nM | CNCC(O)COc1cccc(-c2cc(N(C)C3CCOCC3)nc(-c3ccncc3)n2)c1 (stereo not drawn) [Example 2-1]
< 100 nM | CCc1nc(-c2cccc(OCC(O)CNC)c2)cc(N(C)C2CCOCC2)n1 (stereo not drawn) [Example 2-2]
< 100 nM | CNCC(O)COc1ccc(Cl)c(-c2nc(NC[C@H]3COCCN3C3COC3)c(C)c(-c3c(C)noc3C)n2)c1 (stereo partly drawn) [Example 2-3]
< 100 nM | CNCC(O)COc1cccc(-c2nc(NC3CC(F)C3)c(C)c(-c3c(C)noc3C)n2)c1 (stereo not drawn) [Example 3-3]
< 100 nM | CNCC(O)COc1cccc(-c2nc(NC3CCOCC3)c(C)c(-c3c(C)noc3C)n2)c1 (stereo not drawn) [Example 6-1a]
< 100 nM | CNCC(O)COc1ccc(Cl)c(-c2nc(NC[C@H]3CCCO3)c(C)c(-c3c(C)noc3C)n2)c1 (stereo partly drawn) [Example 6-3]
< 100 nM | CNCC(O)COc1cccc(-c2nc(C3=CCCC3)cc(N(C)CCC#N)n2)c1 (stereo not drawn) [Example 9-1]
< 100 nM | CNCC(O)COc1cc(Cl)cc(-c2nc(Nc3cncnc3)cc(-c3c(C)noc3C)n2)c1 (stereo not drawn) [Example 9-1a]
< 100 nM | CNCC(O)COc1ccc(Cl)c(-c2nc(NCC3CCOCC3)c(C)c(-c3c(C)noc3C)n2)c1 (stereo not drawn) [Example 9-3]
< 100 nM | CNCC(O)COc1cc(Cl)cc(-c2nc(N[C@@H]3CCOC3)cc(-c3c(C)noc3C)n2)c1 (stereo partly drawn) [Example 10-1a]
< 100 nM | C=C(C)c1cc(N(C)C2CCOCC2)nc(-c2cccc(OCC(O)CNC)c2)n1 (stereo not drawn) [Example 11-1]
< 100 nM | CNCC(O)COc1cccc(-c2nc(N[C@@H]3CCOC3)cc(-c3c(C)noc3C)n2)c1 (stereo partly drawn) [Example 11-1a]
< 100 nM | CNCC(O)COc1cc(Cl)cc(-c2nc(N[C@H]3CCOC3)cc(-c3c(C)noc3C)n2)c1 (stereo partly drawn) [Example 12-1a]
< 100 nM | CNCC(O)COc1cccc(-c2nc(C(C)C)cc(N(C)C3CCOCC3)n2)c1 (stereo not drawn) [Example 13-1]
< 100 nM | NCC(O)COc1cccc(-c2nc(N3CCOCC3)cc(N3CCOCC3)n2)c1 (stereo not drawn) [Example 14-1]
< 100 nM | CNCC(O)COc1cccc(-c2nc(-c3c(C)noc3C)c(C)c(N3CCC[C@H](N(C)C(=O)OC)C3)n2)c1 (stereo partly drawn) [Example 15-3]
< 100 nM | CCS(=O)(=O)N1CC2(CN(c3nc(-c4cccc(OCC(O)CNC)c4)nc(-c4c(C)noc4C)c3C)C2)C1 (stereo not drawn) [Example 16-3]
< 100 nM | CNCC(O)COc1cccc(-c2nc(-c3c(C)noc3C)c(C)c(N3CCN(C(=O)OC)C(C(F)F)C3)n2)c1 (stereo not drawn) [Example 17-3]
< 100 nM | CNC[C@@H](O)COc1cccc(-c2nc(NC3CCOCC3)cc(-c3c(C)noc3C)n2)c1 [Example 18-1a]
< 100 nM | CNCC(O)COc1cccc(-c2nc(N(C)C3CCOCC3)cc(C3(C)CC3)n2)c1 (stereo not drawn) [Example 19-1]
< 100 nM | CNCC(O)COc1cccc(-c2nc(NCCOC)cc(-c3c(C)noc3C)n2)c1 (stereo not drawn) [Example 20-1]

Source: patent publication US20230279020A9, “CARM1 INHIBITORS AND USES THEREOF” (Epizyme, Inc., priority 2013, published 2023)
